Laboratory results: patent EP3305781A1, “CHEMICAL SUBSTANCES WHICH INHIBIT THE ENZYMATIC ACTIVITY OF HUMAN KALLIKREIN-RELATED PEPTIDASE 6 (KLK6)” (Deutsches Krebsforschungszentrum, priority 2016, dated 2018)
Like-named read-outs stand apart in the source and are kept apart here.

Experiments:
Assay in all cases: Biochemical inhibition assay, fluorogenic substrate FSR-AMC
KLK6 = KLK6 (Homo sapiens, UniProt Q92876)
Thrombin = Thrombin (Homo sapiens, UniProt P00734)
Trypsin = Trypsin (Homo sapiens, UniProt P07477)
Factor Xa = Factor Xa (Homo sapiens, UniProt P00742)
Chain of Factor Xa (P00742 235-488 limits assumed): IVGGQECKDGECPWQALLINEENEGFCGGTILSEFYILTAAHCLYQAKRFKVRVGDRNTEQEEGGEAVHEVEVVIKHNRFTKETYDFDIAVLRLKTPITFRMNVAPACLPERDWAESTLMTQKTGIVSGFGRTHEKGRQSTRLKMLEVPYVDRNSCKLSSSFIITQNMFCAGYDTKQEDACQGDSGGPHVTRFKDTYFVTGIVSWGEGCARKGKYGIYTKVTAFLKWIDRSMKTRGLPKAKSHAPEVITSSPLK
Chain of Factor Xa (P00742 41-179 partner limits assumed): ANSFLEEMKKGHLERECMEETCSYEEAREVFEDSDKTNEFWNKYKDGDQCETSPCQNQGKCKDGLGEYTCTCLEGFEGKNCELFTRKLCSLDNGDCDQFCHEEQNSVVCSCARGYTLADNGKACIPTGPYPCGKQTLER

[1] = read-out: KLK6 IC50, KLK6 5 nM (produced in insect cells), 30 min incubation with inhibitor, FSR-AMC 20 µM, Tris pH 7.5
[2] = read-out: Thrombin IC50, Thrombin 9.8·10^-5 NIH unit/mL, 30 min incubation with inhibitor, FSR-AMC 20 µM, Tris pH 7.5
[3] = read-out: Trypsin IC50, Trypsin 0.88 ng/mL, 30 min incubation with inhibitor, FSR-AMC 20 µM, Tris pH 7.5
[4] = read-out: Factor Xa IC50, Factor Xa 4 nM, 30 min incubation with inhibitor, FSR-AMC 20 µM, Tris pH 7.5

| IC50 (KLK6) | IC50 (Thrombin) | IC50 (Trypsin) | IC50 (Factor Xa) | IC50 (KLK6; [1]) | IC50 (Thrombin; [2]) | IC50 (Trypsin; [3]) | IC50 (Factor Xa; [4]) | SMILES |
| --- | --- | --- | --- | --- | --- | --- | --- | --- |
| 0.598 µM | > 200 µM | > 200 µM | > 200 µM | – | – | – | – | COc1ccc(Cn2nc(C)c(NC(=O)COC(=O)Cn3c(C)cc4ccccc43)c2C)cc1 [compound 7, 2-((1-(4-methoxybenzyl)-3,5-dimethyl-1H-pyrazol-4-yl)amino)-2-oxoethyl 2-(2-methyl-1H-indol-1-yl)acetate] |
| 0.258 µM | > 200 µM | 126 µM | 139 µM | – | – | – | – | Cc1nn(-c2ccccc2C(F)(F)F)c(C)c1NC(=O)COC(=O)Cn1c(C)cc2ccccc21 [compound 8, 2-((3,5-dimethyl-1-(2-(trifluoromethyl)phenyl)-1H-pyrazol-4-yl)amino)-2-oxoethyl 2-(2-methyl-1H-indol-1-yl)acetate] |
| 16.2 µM | > 200 µM | > 200 µM | > 200 µM | – | – | – | – | Cc1nn(-c2ccccc2)c(C)c1NC(=O)COC(=O)Cn1cc(C)c2ccccc21 [compound 14, 2-((3,5-dimethyl-1-phenyl-1H-pyrazol-4-yl)amino)-2-oxoethyl 2-(3-methyl-1H-indol-1-yl)acetate] |
| – | – | – | – | 78.7 µM | > 200 µM | > 200 µM | > 200 µM | Cc1[nH]c2ccccc2c1CC(=O)OCC(=O)NC1CCCC1 [compound 71] |
| – | – | – | – | 1.2 µM | > 50 µM | > 50 µM | > 50 µM | Cc1nn(-c2ccccc2)c(C)c1NC(=O)COC(=O)Cn1ccc2cccc(Cl)c21 [compound 31] |
| – | – | – | – | 0.158 µM | > 200 µM | > 200 µM | > 200 µM | Cc1nn(-c2ccccc2)c(C)c1NC(=O)COC(=O)Cn1c(C(F)(F)F)cc2ccccc21 [compound 16] |
| – | – | – | – | 12.3 µM | 60.3 µM | 50.4 µM | 65.9 µM | Cc1[nH]c2ccccc2c1CC(=O)OCC(=O)Nc1ccc(F)cn1 [compound 72] |
| – | – | – | – | 11.3 µM | > 50 µM | > 50 µM | > 50 µM | Cc1nn(-c2ccccc2)c(C)c1NC(=O)COC(=O)C(C)n1c(C)cc2ccccc21 (stereo not drawn) [compound 34] |
| 0.439 µM | > 200 µM | > 200 µM | > 200 µM | – | – | – | – | Cc1nn(-c2ccc(C#N)cc2)c(C)c1NC(=O)COC(=O)Cn1c(C)cc2ccccc21 [compound 6, 2-((1-(4-cyanophenyl)-3,5-dimethyl-1H-pyrazol-4-yl)amino)-2-oxoethyl 2-(2-methyl-1H-indol-1-yl)acetate] |
| – | – | – | – | 2.16 µM | > 200 µM | > 200 µM | > 200 µM | Cc1ccccc1CC(=O)OCC(=O)Nc1c(C)nn(-c2ccccc2)c1C [compound 50] |
| – | – | – | – | 172 µM | > 200 µM | > 200 µM | 157 µM | Cc1[nH]c2ccccc2c1CC(=O)OCC(=O)NCc1ncc[nH]1 [compound 85] |
| – | – | – | – | 38.7 µM | > 200 µM | > 200 µM | > 200 µM | C=CCOc1ccccc1NC(=O)COC(=O)Cc1ccccc1I [compound 65] |
| – | – | – | – | 57.4 µM | > 200 µM | > 200 µM | > 200 µM | Cc1nn(-c2ccccc2)c(C)c1NC(=O)COC(=O)Cc1ccccc1OCc1ccccc1 [compound 69] |
| – | – | – | – | 32.6 µM | > 200 µM | > 200 µM | > 200 µM | Cc1nn(-c2ccccc2)c(C)c1NC(=O)COC(=O)Cc1ccc(Cl)s1 [compound 60] |
| – | – | – | – | 30.6 µM | > 50 µM | > 50 µM | > 50 µM | Cc1nn(-c2ccccc2)c(C)c1NC(=O)COC(=O)Cn1ccc2c(F)cccc21 [compound 25] |
| – | – | – | – | 22 µM | > 200 µM | > 200 µM | > 200 µM | Cc1nn(-c2ccccc2)c(C)c1NC(=O)COC(=O)Cc1cccc(F)c1 [compound 64] |
| – | – | – | – | 6.98 µM | > 50 µM | > 50 µM | > 50 µM | Cc1[nH]c2ccccc2c1CC(=O)OCC(=O)Nc1cnn(-c2ccccc2)c1 [compound 39] |
| – | – | – | – | 31.4 µM | > 200 µM | > 200 µM | > 200 µM | CC(=O)Nc1cccc(CC(=O)OCC(=O)Nc2c(C)nn(-c3ccccc3)c2C)c1 [compound 47] |
| – | – | – | – | 112 µM | > 200 µM | > 200 µM | > 200 µM | Cc1nn(-c2ccc([N+](=O)[O-])cc2)c(C)c1NC(=O)COC(=O)Cn1c(C(F)(F)F)cc2ccccc21 [compound 21] |
| – | – | – | – | 27.3 µM | > 200 µM | > 200 µM | > 200 µM | Cc1nn(-c2ccccc2)c(C)c1NC(=O)COC(=O)Cc1ccccc1N=[N+]=[N-] [compound 82] |
| – | – | – | – | 2.88 µM | 14.1 µM | 9.1 µM | 18.1 µM | Cc1nn(-c2ccccc2)c(C)c1N(C)C(=O)COC(=O)Cc1c(C)[nH]c2ccccc12 [compound 88] |

| IC50 (KLK6) | IC50 (Thrombin) | IC50 (Trypsin) | IC50 (Factor Xa) | IC50 (KLK6; [1]) | IC50 (Thrombin; [2]) | IC50 (Trypsin; [3]) | IC50 (Factor Xa; [4]) | SMILES |
| --- | --- | --- | --- | --- | --- | --- | --- | --- |
| – | – | – | – | 6.28 µM | > 200 µM | > 200 µM | > 200 µM | Cc1nn(-c2ccccc2)c(C)c1NC(=O)COC(=O)Cc1cccs1 [compound 59] |
| – | – | – | – | 31.3 µM | > 50 µM | > 50 µM | > 50 µM | Cc1nn(-c2ccccc2)c(C)c1NC(=O)COC(=O)Cc1coc2ccccc12 [compound 41] |
| 0.371 µM | > 200 µM | 65.7 µM | > 200 µM | – | – | – | – | Cc1cccc(-n2nc(C)c(NC(=O)COC(=O)Cn3c(C)cc4ccccc43)c2C)c1 [compound 3, 2-((3,5-dimethyl-1-(m-tolyl)-1H-pyrazol-4-yl)amino)-2-oxoethyl 2-(2-methyl-1H-indol-1-yl)acetate] |
| – | – | – | – | 16.1 µM | > 200 µM | > 200 µM | > 200 µM | Cc1nn(-c2ccccc2)c(C)c1NC(=O)COC(=O)Cc1cccc(C#N)c1 [compound 56] |
| – | – | – | – | 30 µM | > 200 µM | > 200 µM | > 200 µM | COc1cccc(CC(=O)OCC(=O)Nc2c(C)nn(-c3ccccc3)c2C)c1 [compound 53] |
| – | – | – | – | 4.85 µM | > 200 µM | > 200 µM | > 200 µM | COc1ccccc1CC(=O)OCC(=O)Nc1c(C)nn(-c2ccccc2)c1C [compound 54] |
| – | – | – | – | 2.33 µM | > 200 µM | > 200 µM | > 200 µM | Cc1nn(-c2ccccc2)c(C)c1NC(=O)COC(=O)Cc1cc(Cl)sc1Cl [compound 61] |
| – | – | – | – | 6.49 µM | > 50 µM | > 50 µM | > 50 µM | Cc1nn(-c2ccccc2)c(C)c1NC(=O)COC(=O)Cn1c(C)cc2cccc(Cl)c21 [compound 33] |
| 1.25 µM | > 200 µM | 71.5 µM | > 200 µM | – | – | – | – | Cc1nn(C)c(C)c1NC(=O)COC(=O)Cn1c(C)cc2ccccc21 [compound 2, 2-oxo-2-((1,3,5-trimethyl-1H-pyrazol-4-yl)amino)ethyl 2-(2-methyl-1H-indol-1-yl)acetate] |
| – | – | – | – | 0.24 µM | > 200 µM | > 200 µM | > 200 µM | Cc1ccc(-n2nc(C)c(NC(=O)COC(=O)Cn3c(C(F)(F)F)cc4ccccc43)c2C)cc1 [compound 20] |
| – | – | – | – | 0.264 µM | > 200 µM | 21.3 µM | > 200 µM | Cc1nn(-c2ccc(NCCCCO)cc2)c(C)c1NC(=O)COC(=O)Cn1c(C)cc2ccccc21 [compound 19] |
| – | – | – | – | 5.38 µM | > 200 µM | > 200 µM | > 200 µM | Cc1cccc(NC(=O)COC(=O)Cc2c(C)[nH]c3ccccc23)c1 [compound 75] |
| – | – | – | – | 3.36 µM | > 50 µM | > 50 µM | > 50 µM | Cc1nn(-c2ccccc2)c(C)c1NC(=O)COC(=O)Cn1c(C(C)C)cc2ccccc21 [compound 32] |
| – | – | – | – | 26 µM | > 50 µM | > 50 µM | > 50 µM | Cc1nn(-c2ccccc2)c(C)c1NC(=O)COC(=O)Cn1ccc2cc(Cl)ccc21 [compound 28] |
| – | – | – | – | 109 µM | > 200 µM | > 200 µM | > 200 µM | Cc1cc(C)n(CC(=O)OCC(=O)Nc2c(C)nn(-c3ccccc3)c2C)n1 [compound 17] |
| – | – | – | – | 0.486 µM | > 200 µM | 105 µM | > 200 µM | Cc1nn(-c2ccc(N)cc2)c(C)c1NC(=O)COC(=O)Cn1c(C)cc2ccccc21 [compound 22] |
| – | – | – | – | 0.433 µM | > 50 µM | 29.3 µM | > 50 µM | CCc1cc2ccccc2n1CC(=O)OCC(=O)Nc1c(C)nn(-c2ccccc2)c1C [compound 36] |
| – | – | – | – | 4.73 µM | > 200 µM | > 200 µM | > 200 µM | Cc1ccccc1NC(=O)COC(=O)Cc1c(C)[nH]c2ccccc12 [compound 78] |
| – | – | – | – | 6.05 µM | > 200 µM | > 200 µM | > 200 µM | COc1cccc(NC(=O)COC(=O)Cc2c(C)[nH]c3ccccc23)c1 [compound 79] |
| 2.89 µM | > 200 µM | > 200 µM | > 200 µM | – | – | – | – | Cc1nn(-c2ccc(C(F)(F)F)cc2)c(C)c1NC(=O)COC(=O)Cn1c(C)cc2ccccc21 [compound 4, 2-((3,5-dimethyl-1-(4-(trifluoromethyl)phenyl)-1H-pyrazol-4-yl)amino)-2-oxoethyl 2-(2-methyl-1H-indol-1-yl)acetate] |
| – | – | – | – | 1.48 µM | > 50 µM | > 50 µM | > 50 µM | Cc1nn(-c2ccccc2)c(C)c1NC(=O)C(C)OC(=O)Cn1c(C)cc2ccccc21 (racemic) [compound 37] |
